One assay has as its system A549. Description: Cytotoxicity against human A549 cells after 72 hrs by MTT assay.
Assay [1] relates to MCF7.
Description: (§1) Cytotoxicity against human MCF7 cells after 72 hrs by MTT assay
Assay [2] relates to MCF7. In words: cells. The following applies: Homo sapiens, MCF7, 72 h.
Description: as §1
The nature of the next assay: cells. Particulars: Homo sapiens, PC-3, 72 h; call rule not given here.
Another assay has as its system HeLa. Description: Cytotoxicity against human HeLa cells after 72 hrs by MTT assay. It counts as functional, cell-based. For orientation: Formazan colour is commonly taken as a measure of viable cells.
The target in assay [3] is Hepatocyte growth factor receptor (Homo sapiens, UniProt P08581). In words: Inhibition of c-Met (unknown origin) using FAM-labeled peptide substrate after 10 mins by mobility shift assay.
Sequence of Hepatocyte growth factor receptor (P08581 whole entry): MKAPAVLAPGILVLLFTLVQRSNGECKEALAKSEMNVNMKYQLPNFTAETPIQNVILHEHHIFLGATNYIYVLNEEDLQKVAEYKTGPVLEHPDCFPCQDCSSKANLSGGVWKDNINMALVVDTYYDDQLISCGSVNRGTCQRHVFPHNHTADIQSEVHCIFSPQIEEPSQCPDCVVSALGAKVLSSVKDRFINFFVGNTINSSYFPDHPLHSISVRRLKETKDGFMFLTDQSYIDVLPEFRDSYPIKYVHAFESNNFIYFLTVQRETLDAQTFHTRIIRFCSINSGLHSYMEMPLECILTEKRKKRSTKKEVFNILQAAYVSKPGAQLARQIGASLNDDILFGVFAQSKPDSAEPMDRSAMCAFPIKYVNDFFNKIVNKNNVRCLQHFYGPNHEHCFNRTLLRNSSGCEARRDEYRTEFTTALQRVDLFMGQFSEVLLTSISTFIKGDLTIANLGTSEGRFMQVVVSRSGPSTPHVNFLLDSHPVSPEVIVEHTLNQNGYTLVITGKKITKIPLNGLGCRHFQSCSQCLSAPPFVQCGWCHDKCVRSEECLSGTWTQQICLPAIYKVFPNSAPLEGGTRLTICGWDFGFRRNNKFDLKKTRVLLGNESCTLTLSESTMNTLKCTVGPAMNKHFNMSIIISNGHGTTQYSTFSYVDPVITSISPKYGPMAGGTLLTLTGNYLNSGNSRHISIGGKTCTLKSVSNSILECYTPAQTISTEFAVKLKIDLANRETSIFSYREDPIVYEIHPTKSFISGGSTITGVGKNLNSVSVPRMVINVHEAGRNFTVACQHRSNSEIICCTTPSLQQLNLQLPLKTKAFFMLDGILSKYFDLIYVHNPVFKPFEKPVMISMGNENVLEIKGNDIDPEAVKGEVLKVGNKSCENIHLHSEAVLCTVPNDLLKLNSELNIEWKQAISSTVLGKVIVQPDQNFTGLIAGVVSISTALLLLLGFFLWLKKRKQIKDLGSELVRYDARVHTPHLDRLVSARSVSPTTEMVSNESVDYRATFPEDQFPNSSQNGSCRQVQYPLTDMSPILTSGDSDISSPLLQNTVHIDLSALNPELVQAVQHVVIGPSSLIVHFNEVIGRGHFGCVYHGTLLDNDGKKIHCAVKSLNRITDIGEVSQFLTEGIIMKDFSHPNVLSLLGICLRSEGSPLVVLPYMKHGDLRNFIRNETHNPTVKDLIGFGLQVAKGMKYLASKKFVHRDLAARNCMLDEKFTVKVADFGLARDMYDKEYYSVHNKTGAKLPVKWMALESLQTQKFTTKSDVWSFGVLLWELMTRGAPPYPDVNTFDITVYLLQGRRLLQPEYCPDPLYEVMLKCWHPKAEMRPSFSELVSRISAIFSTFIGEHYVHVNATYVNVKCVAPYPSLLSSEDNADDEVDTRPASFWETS
In a further assay the test system is HepG2. Description: Cytotoxicity against human HepG2 cells after 72 hrs by MTT assay. The following applies: HepG2, 72 h. The format is functional, cell-based.

Structures are written as SMILES.

24 compounds from ChEMBL document CHEMBL3774366, “Synthesis, and docking studies of phenylpyrimidine-carboxamide derivatives bearing 1H-pyrrolo[2,3-b]pyridine moiety as c-Met inhibitors” (Bioorg Med Chem, 2016) can be followed below.

With `O=C(Nc1ccc(Oc2ccnc3[nH]ccc23)c(F)c1)c1cc(-c2ccc(F)cc2)ncn1`, the concentration for half-maximal inhibition (IC50) (as a rule, the concentration that gives 50% inhibition) is 14.2 µM in the assay with A549 (Homo sapiens, A549, 72 h) and “Not Active” in the assay with MCF7 [1].
As to `O=C(Nc1ccc(Oc2ccnc3[nH]ccc23)cc1)c1cc(-c2ccc(F)cc2)ncn1`, the IC50 came to 13 µM in the assay on A549 (Homo sapiens, A549, 72 h) and 15.9 µM with MCF7 [2].
Regarding `COc1ccc(-c2ccnc(C(=O)Nc3ccc(Oc4ccnc5[nH]ccc45)cc3)n2)cc1`, the half-maximal inhibitory concentration (IC50) stood at 13.3 µM in the assay with A549 (Homo sapiens, A549, 72 h); 12.4 µM with MCF7 [2]; 17.3 µM in the assay “cells”.
Consider `O=C(Nc1ccc(Oc2ccnc3[nH]ccc23)cc1)c1nccc(-c2cccc(Cl)c2)n1`, for which the half-inhibitory concentration (IC50) turned out to be 4.12 µM in the assay on A549 (Homo sapiens, A549, 72 h); 10.2 µM with MCF7 [2]; 7.8 µM in “cells”.
For the compound `COc1ccc(-c2cc(C(=O)Nc3ccc(Oc4ccnc5[nH]ccc45)cc3)ncn2)cc1`, the IC50 with A549 (Homo sapiens, A549, 72 h) came to 4.41 µM; with MCF7 [2], 4.45 µM; in “cells”, 9.83 µM.
Take `O=C(Nc1ccc(Oc2ccnc3[nH]ccc23)cc1)c1cc(-c2ccccc2)ncn1`: the IC50 in the assay on A549 (Homo sapiens, A549, 72 h) amounted to 0.14 µM; in the assay on HeLa it was 0.4 µM; with MCF7 [2], 0.02 µM; in assay [3], 0.12 µM; in the assay “cells” it was 0.24 µM; with HepG2, 3.11 µM.
For `O=C(Nc1ccc(Oc2ccnc3[nH]ccc23)c(F)c1)c1nccc(-c2ccc([N+](=O)[O-])cc2)n1`, the concentration for half-maximal inhibition (IC50) with A549 (Homo sapiens, A549, 72 h) is 4.47 µM; with MCF7 [1] it was “Not Active”; in the assay “cells”, 12.1 µM.
Take `O=C(Nc1ccc(Oc2ccnc3[nH]ccc23)c(F)c1)c1cc(-c2ccc(Cl)cc2)ncn1`: the IC50 with A549 (Homo sapiens, A549, 72 h) was determined as 3.36 µM; in the assay with MCF7 [2] it was 26.9 µM; in “cells”, 3.2 µM.
The like results for `O=C(Nc1ccc(Oc2ccnc3[nH]ccc23)c(F)c1)c1cc(-c2ccc(Br)cc2)ncn1` were, in that order, 6.98 µM, 10.3 µM and 11.3 µM.
For `Cc1ccc(-c2ccnc(C(=O)Nc3ccc(Oc4ccnc5[nH]ccc45)c(F)c3)n2)cc1`, the concentration for half-maximal inhibition (IC50) in the assay on A549 (Homo sapiens, A549, 72 h) worked out at 1.15 µM; in the assay on HeLa, 5.51 µM; in the assay on MCF7 [2] it was 7.17 µM; in assay [3], 3.4 µM; in the assay “cells”, 0.52 µM; with HepG2, 16.4 µM.
As to `COc1ccc(-c2cc(C(=O)Nc3ccc(Oc4ccnc5[nH]ccc45)c(F)c3)ncn2)cc1`, the 50% inhibitory concentration (IC50) came out at 4.21 µM with A549 (Homo sapiens, A549, 72 h); 10.4 µM in the assay with MCF7 [2]; 2.57 µM in “cells”.
As to `Cc1ccc(-c2cc(C(=O)Nc3ccc(Oc4ccnc5[nH]ccc45)cc3)ncn2)cc1`, the half-inhibitory concentration (IC50) in the assay with A549 (Homo sapiens, A549, 72 h) came out at 5.41 µM; in the assay with MCF7 [2], 1.62 µM; in “cells”, 9.88 µM.
On to `Cc1ccc(-c2cc(C(=O)Nc3ccc(Oc4ccnc5[nH]ccc45)c(F)c3)ncn2)cc1`, for which the IC50 in the assay on A549 (Homo sapiens, A549, 72 h) was 8.6 µM; with MCF7 [2] it was 6.73 µM; in the assay “cells”, 24.9 µM.
Consider `O=C(Nc1ccc(Oc2ccnc3[nH]ccc23)cc1)c1cc(-c2ccc(Br)cc2)ncn1`, for which the half-inhibitory concentration (IC50) in the assay on A549 (Homo sapiens, A549, 72 h) came out at 9.87 µM; in the assay with MCF7 [2], 3.84 µM; in “cells”, 2.61 µM.
On to `Cc1ccc(-c2ccnc(C(=O)Nc3ccc(Oc4ccnc5[nH]ccc45)cc3)n2)cc1`, for which the IC50 with A549 (Homo sapiens, A549, 72 h) turned out to be 2.38 µM; in the assay on MCF7 [2], 6.41 µM; in the assay “cells”, 6.14 µM.
The like results for `O=C(Nc1ccc(Oc2ccnc3[nH]ccc23)c(F)c1)c1nccc(-c2ccc(Cl)cc2)n1` were, in that order, 8.94 µM, 9.66 µM and 14.6 µM.
On to `O=C(Nc1ccc(Oc2ccnc3[nH]ccc23)cc1)c1cc(-c2ccc(C(F)(F)F)cc2)ncn1`, for which the IC50 in the assay on A549 (Homo sapiens, A549, 72 h) came to 9.38 µM; in the assay with MCF7 [2] it was 6.24 µM; in “cells” it was 2.16 µM.
Turning to `COc1ccc(-c2ccnc(C(=O)Nc3ccc(Oc4ccnc5[nH]ccc45)c(F)c3)n2)cc1`, the IC50 in the assay on A549 (Homo sapiens, A549, 72 h) came out at 5.43 µM; with MCF7 [2], 8.96 µM; in the assay “cells”, 14.1 µM.
Consider `O=C(Nc1ccc(Oc2ccnc3[nH]ccc23)c(F)c1)c1nccc(-c2cccc(Cl)c2)n1`, for which the IC50 in the assay on A549 (Homo sapiens, A549, 72 h) was 0.45 µM; in the assay with HeLa, 3.35 µM; in the assay on MCF7 [2], 1.58 µM; in assay [3], 2.2 µM; in “cells” it was 1.38 µM; in the assay with HepG2 it was 9.34 µM.
For the compound `O=C(Nc1ccc(Oc2ccnc3[nH]ccc23)cc1)c1cc(-c2ccc(Cl)cc2)ncn1`, the IC50 in the assay on A549 (Homo sapiens, A549, 72 h) is 6.53 µM; in the assay with MCF7 [2], 7.77 µM; in the assay “cells” it was 15.6 µM.
In the case of `O=C(Nc1ccc(Oc2ccnc3[nH]ccc23)c(F)c1)c1cc(-c2ccccc2)ncn1`, the half-inhibitory concentration (IC50) in the assay on A549 (Homo sapiens, A549, 72 h) was determined as 0.18 µM; in the assay on HeLa, 2.86 µM; in the assay with MCF7 [2] it was 4.64 µM; in assay [3], 0.98 µM; in “cells” it was 0.04 µM; in the assay with HepG2, 9.61 µM.
Consider `O=C(Nc1ccc(Oc2ccnc3[nH]ccc23)cc1)c1nccc(-c2ccc(Cl)cc2)n1`, for which the IC50 in the assay with A549 (Homo sapiens, A549, 72 h) is 22.4 µM; in the assay with MCF7 [1], “Not Active”.
Turning to `O=C(Nc1ccc(Oc2ccnc3[nH]ccc23)c(F)c1)c1cc(-c2ccc(C(F)(F)F)cc2)ncn1`, the half-inhibitory concentration (IC50) came out at 2.22 µM with A549 (Homo sapiens, A549, 72 h); 2.84 µM with MCF7 [2]; 4.12 µM in the assay “cells”.
On to `O=C(Nc1ccc(Oc2ccnc3[nH]ccc23)cc1)c1nccc(-c2ccc(F)cc2)n1`, for which the IC50 entry in the assay on A549 (a549) and with MCF7 [1] was “Not Active” in each case.
